According to patent US12358935B2, “Targeting redox-active pyridinium cations to mitochondria to inhibit proliferation of drug-resistant cancer cells” (The Medical College of Wisconsin, Inc., priority 2018, dated 2025):
Entries after “also recorded” stand apart in the source; their conditions may differ. Like-named read-outs stand apart in the source and are kept apart here.

Assays:
LS513 colon cancer cells [1] = assay: Superoxide production, hydroethidine (HE) assay with HPLC of 2-OH-E+; type: cell-based, human; conditions: 50 μM, 1 h pre-incubation then 1 h HE probe
Experimental: FIGS. 5A-5B. Stimulation of intracellular superoxide of Mito-Py. LS513 colon cancer cells were pre-incubated for 1 h with 50 μM Mito-Py followed by 1-h incubation with the HE probe. 2-OH-E^+ is a specific product of the reaction of the probe with superoxide. (A) Effect of the substituent on the pyridinium ring. (B) Effect of the alkyl linker length in Mito-NP.
Induction of superoxide production by mitochondria-targeted pyridinium cations.

LS513 cells [2] = assay: Cell death, Sytox Green; type: cell-based, human; conditions: prolonged (>24 h) incubation
LS513 cells [3] = assay: Cell proliferation, IncuCyte cell confluence; type: cell-based, human; conditions: for IC50: estimated from concentration dependence
Experimental: FIG. 8. Effect of Mito-Py compounds (10 μM) on the proliferation of LS513 cells. (A) Effect of the substituent on the pyridinium ring. (B) Effect of the alkyl linker length in Mito-NP.
FIG. 9. Effect of concentration of Mito-NP-C8 and Mito-NP-C10 on the LS513 cell confluence. Dashed lines correspond to 50% cell confluence.
Antiproliferative effects of mitochondria-targeted pyridinium cations. To test if the mitochondrial redox stress induced by Mito-Py compounds would translate into inhibition of cancer cell proliferation, we compared the effects of Mito-Py of different redox potential and different alkyl linker length on proliferation of LS513 cells. We used the IncuCyte™ Live-Cell Imaging Analyzer that provides real-time cell confluence data (FIG. 8).

mitochondrial Prx3 [4] = assay: Redox blotting of peroxiredoxin 3; type: cell-based, human; conditions: 10 μM, 1 h, LS513 cells
Experimental: FIG. 6. Effect of Mito-NP-C10 (10 μM, 1 h) on the redox status of cytosolic (Prx1) and mitochondrial (Prx3) peroxiredoxins. **p<0.01
Intracellular localization of redox stress. To understand the fate of superoxide induced by Mito-NP-C10 and determine the localization of the redox cycling process, we performed redox blotting of peroxiredoxin isoforms 1 and 3 (Prx1 and Prx3).

LS513 colon cancer cells [5] = assay: Oxygen consumption rate / mitochondrial respiration; type: cell-based, human
Experimental: FIG. 7. Effect of Mito-NP-C10 (0-100 μM) on the rates of oxygen consumption (OCR) by LS513 colon cancer cells, and on the cell response to mitochondrial stressors: oligomycin (ATP synthase inhibitor), dinitrophenol (DNP, mitochondrial uncoupler) and antimycin A (mitochondrial complex III inhibitor).
Induction of bioenergetic stress. To test the effect of Mito-NP-C10 on the bioenergetic function of LS513 cells, we monitored the mitochondrial respiration in response to acute addition of the compound at different doses (FIG. 7).

MiaPaCa2 cells [6] = assay: Bioenergetic function, Seahorse XF96 flux analyzer; type: cell-based, human
Experimental: FIG. 16. Inhibition of mitochondrial respiration by Mito-NP in MiaPaCa2 cells. (A) Mito-NP injected during the measurements. (B) Cells pretreated with Mito-NP for 24 h. (C) Effect of Mito-NP concentration on ATP-linked respiration rate after 1 h and 24 h incubation. (D) Effect of Mito-NP concentration on glycolytic and mitochondrial ATP production rates after 24-h incubation.
(§1) FIG. 18. (A) Intracellular level of Mito-NP and Mito-NPH. (B) Dynamics of inhibition of mitochondrial respiration by Mito-NP and Mito-NPH. (C) Intracellular generation. 10 μM Mito-NP or Mito-NPH was used.
Immediately (1 h) after injection, a high concentration of Mito-NP (100 μM) was needed to block ATP-linked respiration (FIG. 16A,C). […] One of the hallmarks of cancer cells is their flexibility in using different energetic substrates to sustain growth in the presence of metabolism-targeted drugs.
(§2) We treated pancreatic cancer cells with Mito-NP or Mito-NPH and the intracellular levels of both oxidized, redox-cycling capable Mito-NP, and its cell membrane-permeable reduced precursor, Mito-NPH, were measured using LC-MS/MS. […] The dynamics of inhibition of mitochondrial respiration by Mito-NPH and Mito-NP was used to follow the compounds' uptake rates. […] The increased intracellular level of Mito-NP upon treatment with Mito-NPH also translated into 2-fold stronger stimulation of intracellular O2.^− production, as measured by monitoring O2.^−-specific product of hydroethidine oxidation, 2-OH-E^+ (FIG. 18C). […] Next, we tested the effects of Mito-NPH on MiaPaCa2 cell proliferation and survival. […] 5. Syngraft mouse model. We have established a preliminary syngraft model using mouse FC1242 PDAC cell line. After the tumor has been established and detectable by palpation (seven days after injection of tumor cells), Mito-NPH (0.2 mg per injection) was administered three times per week. Tumor size was measured using calipers and by weighing the tumor tissues at the completion of the study. […] The tumor tissues were analyzed for the level of Mito-NP and Mito-NPH 24 h after the last injection of Mito-NPH.

[7] = Tumor tissue compound levels, LC-MS/MS; type: in vivo, mouse; conditions: 24 h after the last injection of Mito-NPH
Description: (§3) FIG. 20. In vivo effects of Mito-NPH on the FC1242 PDAC tumor growth in mice. (A) Tumor growth curves; (B) tumor wet weight after 9 days of treatment; and (C) LC-MS/MS traces of Mito-NP, Mito-NPH, and their metabolites: hydroxylamine (Mito-HAP) and amine (Mito-AP) derivatives extracted from tumor. n=5 per group, *p<0.05
as §2, with “After the tumor has been established and detectable by palpation (seven days after injection of tumor cells), Mito-NPH (0.2 mg per injection) was administered three times per week.” left out

MiaPaCa2 cells [8] = type: cell-based
Experimental: (§4) FIG. 13. […] Cells were stained with Sytox Green dye after 48-h treatment with the compounds to label dead cells.
FIG. 19. […] MiaPaCa2 cells were incubated with the compounds for 5 days and cells counted (A) or for 24 h, followed by labeling with Sytox Green dead cell fluorescent stain (B).
(§5) 1. Antiproliferative and cytotoxic effects in pancreatic cancer cells. […] To determine the cytotoxic potency of Mito-NP, we used Sytox Green fluorescent marker, which accumulates in dead cells and increases its fluorescence yield upon binding DNA.
We treated pancreatic cancer cells with Mito-NP or Mito-NPH and the intracellular levels of both oxidized, redox-cycling capable Mito-NP, and its cell membrane-permeable reduced precursor, Mito-NPH, were measured using LC-MS/MS. […] The dynamics of inhibition of mitochondrial respiration by Mito-NPH and Mito-NP was used to follow the compounds' uptake rates. […] Next, we tested the effects of Mito-NPH on MiaPaCa2 cell proliferation and survival. […] 5. Syngraft mouse model. We have established a preliminary syngraft model using mouse FC1242 PDAC cell line. […] Tumor size was measured using calipers and by weighing the tumor tissues at the completion of the study. […] The tumor tissues were analyzed for the level of Mito-NP and Mito-NPH 24 h after the last injection of Mito-NPH.

MiaPaCa2 cells [9] = assay: Cellular oxidants, HE probe with HPLC profiling; type: cell-based, human; conditions: 10 μM
Experimental: FIG. 14. Stimulation of cellular oxidants by Mito-NP in pancreatic cancer cells. Profiles of HE oxidation products in MiaPaCa2 cells treated with Mito-NP (10 μM, 4 h).
as §1
2.1. Generation of O2.^− and other oxidants. […] We have confirmed the mitochondrial localization of O2.^− production using Mito-SOX (Mito-HE-C6) probe with HPLC-based detection of, 2-OH-Mito-E^+, the O2.^−-specific oxidation product of MitoSOX (not shown).
as §2

MiaPaCa2 cells [10] = assay: Inhibition of pancreatic cancer cell growth; type: cell-based, human
Experimental: (§6) FIG. 12. (A) Antiproliferative potency of Mito-NP against different pancreatic cancer cells. (B) Comparison of the antiproliferative effects of Mito-NP, with its untargeted analogs (10 μM each).
FIG. 19. Antiproliferative (A) and cytotoxic (B) potency of Mito-NP vs. Mito-NPH. MiaPaCa2 cells were incubated with the compounds for 5 days and cells counted (A) or for 24 h, followed by labeling with Sytox Green dead cell fluorescent stain (B).
as §5
We treated pancreatic cancer cells with Mito-NP or Mito-NPH and the intracellular levels of both oxidized, redox-cycling capable Mito-NP, and its cell membrane-permeable reduced precursor, Mito-NPH, were measured using LC-MS/MS. […] The increased intracellular level of Mito-NP upon treatment with Mito-NPH also translated into 2-fold stronger stimulation of intracellular O2.^− production, as measured by monitoring O2.^−-specific product of hydroethidine oxidation, 2-OH-E^+ (FIG. 18C). […] Tumor size was measured using calipers and by weighing the tumor tissues at the completion of the study. […] The tumor tissues were analyzed for the level of Mito-NP and Mito-NPH 24 h after the last injection of Mito-NPH.

FC1242 PDAC tumor = assay: Syngraft mouse model, tumor growth; type: in vivo; conditions: 0.2 mg per injection, three times per week, 9 days of treatment, FC1242 syngraft in mice
Description: as §3
as §2, with “After the tumor has been established and detectable by palpation (seven days after injection of tumor cells), Mito-NPH (0.2 mg per injection) was administered three times per week.” left out

mitochondrial Prx3 [11] = assay: Redox status of peroxiredoxin 3; type: cell-based, human; conditions: MiaPaCa2 cells
Description: (§7) FIG. 15. Effect of Mito-NP on the redox status of cytosolic (Prx1) and mitochondrial (Prx3) peroxiredoxins in MiaPaCa2 cells. *p<0.05, ***p<0.001.
(§8) 2.2. Prx oxidation. Increased production of O2.^− results in elevated H2O2 flux. We tested the effect of Mito-NP on the redox status of cytosolic (Prx1) and mitochondrial (Prx3) peroxiredoxins (FIG. 15A).

[12] = system: HPNE non-tumorigenic pancreatic duct cell line; assay: Cytotoxicity, Sytox Green dead cell stain; type: cell-based, human; conditions: HPNE non-cancer cells, 48-h treatment
Description: as §4, §5

cytosolic Prx1 = assay: Redox status of peroxiredoxin 1; type: cell-based, human; conditions: MiaPaCa2 cells
Description: as §7, §8

Panc1 cells = assay: Inhibition of pancreatic cancer cell growth; type: cell-based, human
Experimental: as §6, §5

FC1242 cells = assay: Inhibition of pancreatic cancer cell growth; type: cell-based, mouse
Experimental: as §6, §5

O=[N+]([O-])c1ccc[n+](CCCCCCCC[P+](c2ccccc2)(c2ccccc2)c2ccccc2)c1 [Mito-NP-C8]
superoxide production (2-OH-E+) (LS513 colon cancer cells [1]): stimulated superoxide production
cell death (Sytox Green) (LS513 cells [2]): results in cell death
IC50 (LS513 cells [3]): 13000 nM

O=[N+]([O-])c1ccc[n+](CCCCCCCCCC[P+](c2ccccc2)(c2ccccc2)c2ccccc2)c1 [Mito-NP-C10]
superoxide production (2-OH-E+) (LS513 colon cancer cells [1]): most potent inducer of superoxide production
oxidation of mitochondrial Prx3 (mitochondrial Prx3 [4]): induces significant oxidation of mitochondrial Prx3
cell death (Sytox Green) (LS513 cells [2]): results in cell death
IC50 (LS513 cells [3]): 6000 nM
response to mitochondrial stressors (oligomycin, DNP, antimycin A) (LS513 colon cancer cells [5]; 0-100 μM): a loss in response to oligomycin
mitochondrial respiration rates (OCR) (LS513 colon cancer cells [5]; 0-100 μM, acute addition): time- and concentration-dependent inhibition in mitochondrial respiration rates
antimycin A-independent oxygen consumption (LS513 colon cancer cells [5]; 30 and 100 μM): increased the rates of antimycin A-independent oxygen consumption

O=[N+]([O-])C1=CN(CCCCCCCCCC[P+](c2ccccc2)(c2ccccc2)c2ccccc2)C=CC1 [Mito-NPH]
dynamics of inhibition of mitochondrial respiration vs Mito-NP (MiaPaCa2 cells [6]; 10 μM): More efficient inhibition of mitochondrial respiration
compound level in tumor tissues [7]: detected both Mito-NP and Mito-NPH
cytotoxic potency (Sytox Green) vs Mito-NP (MiaPaCa2 cells [8]; 24 h): significantly stronger cytotoxic agent
stimulation of intracellular O2.- production (2-OH-E+) vs Mito-NP (MiaPaCa2 cells [9]): 2 fold
IC50 (MiaPaCa2 cells [10]; 5 days incubation, read-out: IC50 (antiproliferative, cell count)): 1200 ± 100 nM
tumor growth (size, wet weight) (FC1242 PDAC tumor): inhibition of the tumor growth

O=[N+]([O-])c1ccc[n+](CCCCCCCCCC[P+](c2ccccc2)(c2ccccc2)c2ccccc2)c1 [Mito-NP]
mitochondrial respiration (MiaPaCa2 cells [6]): time- and concentration-dependent inhibition of mitochondrial respiration
ATP-linked respiration (MiaPaCa2 cells [6]; 10 μM, 24-h incubation): complete inhibition of ATP-linked respiration
rate of mitochondrial ATP production (MiaPaCa2 cells [6]; 24-h incubation): decrease in the rate of mitochondrial ATP production
concentration needed to block ATP-linked respiration (MiaPaCa2 cells [6]; 1 h after injection): 100 µM
glycolytic ATP production (MiaPaCa2 cells [6]; concentrations higher than 10 μM, 24-h incubation): decreased at higher concentrations
glycolytic ATP production (MiaPaCa2 cells [6]; concentrations up to 10 μM, 24-h incubation): remained unchanged
oxidation of mitochondrial Prx3 (mitochondrial Prx3 [11]): strong oxidation of mitochondrial Prx3
cell death (Sytox Green) (MiaPaCa2 cells [8]; 48-h treatment): dose-dependently induced death of MiaPaCa2 cells; also recorded: significantly stronger inducer of MiaPaCa2 cell death than Mito-Met
cell death (Sytox Green) [12]: No induction of cell death
oxidation of cytosolic Prx1 (cytosolic Prx1): only modest effect on cytosolic Prx1
O2.- production (2-OH-E+) (MiaPaCa2 cells [9]; 4 h): significant increase
other HE oxidation products (MiaPaCa2 cells [9]; 4 h): An increased level of other oxidation products
IC50 (MiaPaCa2 cells [10]; read-out: IC50 (cell growth)): 2700 ± 200 nM
cell proliferation (confluence) (LS513 cells [3]; 10 μM): blocked the proliferation of colon cancer cells
IC50 (Panc1 cells): 2800 ± 300 nM
IC50 (FC1242 cells): 3100 ± 100 nM
